These results are taken from patent publication US12084698B2, “Virus-like particles and use thereof” (priority 2018, dated 2024).

Molecules are shown by their SMILES.

For one test, the target named is HIV protease (Human immunodeficiency virus type 1 group M subtype B, UniProt P04585). The following applies: Darunavir added to cells in preparing VLPs.
Test [1] deals with EGxxFP reporter construct in HEK293T EGxxFP cells. Nature of the test: SSA-EGFP (EGxxFP) reporter experiment, flow cytometry of GFP-positive cells. The test is classed as cell-based, human. As to conditions: VLPs prepared at 0, 3, 30, 300 nM AP21967; 5×10^4 cells; 3 days. Here is the method:
The HEK293T EGxxFP cells were seeded on a 48-well plate at 2.5×10^4 to 5.0×10^4 cells/well. On the next day, the VLP solution was added thereto, and then after 3 days, the fluorescence of EGFP was analyzed using an LSR3 flow cytometer.
FIG. 2 is a schematic view illustrating an SSA-EGFP (hereinafter, called “EGxxFP” in some cases) reporter experiment. As cells, HEK293T cells were used which constantly express sgRNA targeting the human Dystrophin (DMD) gene and have genome into which the EGxxFP reporter construct (SEQ ID NO: 21) was inserted. The EGxxFP reporter construct is a construct designed by inserting a sequence including the target sequence of the sgRNA into the EGFP cDNA sequence, so that a functional EGFP protein is not expressed.
Then, the cleaved EGFP cDNA is repaired by single-strand annealing (SSA). As a result, functional EGFP is expressed, and the fluorescence of EGFP can be observed. In this experimental system, by quantifying the fluorescence of EGFP in the cells by using a flow cytometer, it is possible to evaluate the target gene cleavage efficiency (genome editing efficiency) of the Cas9 protein in cell populations.
Then, the prepared VLPs (15 μL) were introduced into the HEK293T EGxxFP reporter cells (5×10^4 cells expressing sgRNA). Subsequently, after 3 days, the proportion of GFP-positive cells was analyzed with a flow cytometer.
(In general: In flow cytometry, cells or beads pass a laser one at a time.)

The subject of test [2] is DNA (700 bp) including a dystrophin target sequence. Kind of test: In vitro DNA cleavage activity of VLP lysate. Format: biochemical, human. As to conditions: VLPs prepared in presence or absence of AP21967. Here is the method: Thereafter, in order to test the amount of the Cas9 protein contained in VLPs, in vitro DNA cleavage activity was measured. Specifically, Lysis buffer was added to each of the concentrated VLPs, and the mixture was left to stand on ice for 10 minutes so that the VLPs were lysed.
After the reaction, in order to remove sgRNA, RNase A was added thereto and reacted at 37° C. for 30 minutes. Furthermore, in order to remove proteins, proteinase K was added thereto and reacted at 50° C. for 20 minutes.
Then, these samples were subjected to electrophoresis using 2200 TapeStation (high sensitivity D1000 TapeScreen, Agilent Technologies, Inc.), and the proportion of cleaved DNA including the dystrophin target sequence was measured.

In a further test the test system is DMD gene. Kind of test: T7EI assay in HEK293T EGxxFP cells expressing sgRNA DMD #1. Format: cell-based, human. As to conditions: VLPs prepared in presence or absence of AP21967. Here is the method:
By using MonoFas Genomic DNA Extraction kit (GL Sciences Inc.), genomic DNA was recovered from the cultured cells according to the protocol. Then, PCR was performed using 100 ng of the genomic DNA, primers for the regions to be amplified, and PrimeSTAR GXL DNA Polymerase (Takara Bio Inc.), and the PCR product was purified using Wizard SV Gel and PCR Clean-up System (Promega Corporation).
Subsequently, 400 ng of the PCR product was thermally denatured in NEBuffer 2.1 (New England Biolabs) at 95° C. for 5 minutes and then reannealed by slow cooling. The PCR product was cooled to 85° C. from 95° C. at −2° C./sec and then to 25° C. from 85° C. at −0.1° C./sec. Subsequently, 10 units of T7 endonuclease I (T7EI) enzyme was added thereto and reacted at 37° C. for 15 minutes. Thereafter, 6 mM of EDTA was added thereto so that the reaction stopped. Then, the cleavage products were analyzed using DS1000 High Sensitivity Screen Tape and Tape Station 2200 (Agilent Technologies, Inc.).
Then, the cleavage activity for the target DMD gene on the genome was measured by T7EI assay.
After 3 days, genomic DNA was extracted from each of the cells. Subsequently, the target region of the DMD gene on the genome was amplified by PCR. Thereafter, the PCR product was purified using columns, and by using 400 ng of the obtained DNA, mutation introduction efficiency was measured by T7EI assay.

Protocol for HIV protease: First, in the presence or absence of Darunavir (HIV protease inhibitor), VLPs (FIGS. 1(a) and 1(b)) were prepared which were constituted with wild-type Gag-Pol^HIV or FKBP12-Gag-Pol^HIV derived from HIV and encapsulated a Cas9 protein fused with an FRB domain (hereinafter, called “FRB-Cas9 protein” in some cases).
Subsequently, FKBP12-Gag-Pol^HIV and the HA-tagged FRB-Cas9 protein in each of the above VLPs were quantified by Western blotting.

On to `CC(C)CN(C[C@@H](O)[C@H](Cc1ccccc1)NC(=O)O[C@H]1CO[C@H]2OCC[C@H]21)S(=O)(=O)c1ccc(N)cc1` [Darunavir], for which the “cleavage of Gag protein and degradation of Cas9 protein in VLPs” value on HIV protease was “inhibited”.

With `CO[C@H]1[C@@H](O)[C@H](C)C[C@H](C)/C=C/C=C/C=C(\C)[C@@H](c2c[nH]c3c(C)cccc23)C[C@@H]2CC[C@@H](C)[C@@](O)(O2)C(=O)C(=O)N2CCCC[C@H]2C(=O)O[C@H]([C@H](C)C[C@@H]2CC[C@@H](O)[C@H](OC)C2)C[C@H](O)[C@H](C)/C=C(\C)[C@H]1O` [AP21967, C-16-(S)-7-methylindole rapamycin], in test [1], the “genome editing efficiency (proportion of GFP-positive cells)” value was “increases depending on the AP21967 concentration”. Also, the “encapsulation of Cas9 in VLPs on addition of AP21967” value (in test [2]; in the test with DMD gene) was “more efficiently encapsulated” throughout.
